From patent publication US20250066816A1, “ELECTROPORATION ENHANCERS FOR CRISPR-CAS SYSTEMS” (SIGMA-ALDRICH CO. LLC, priority 2021, published 2025)

Test system: human HEK293 cells
Test: High fidelity SpCas9 RNP nucleofection, HEKSite4 target site, HEK293 cells, editing frequency by NGS
Type: cell-based
Conditions: at least one of the three dosages tested (Table 10), FIG. 6
Procedure: A high fidelity SpCas9 protein (Catalog No. CAS9 Plus) and a synthetic single guide RNA (sgRNA) with the spacer sequence of 5′-[…]-3′ (SEQ ID NO: 46) targeting the human HEKSite4 locus were purchased from MilliporeSigma. Pentosan polysulfate sodium salt with a formula of (C5H6Na2O10S2)n was purchased from Selleckchem (Catalog No. S3500). A pentosan polysulfate solution was prepared by dissolving the chemical in water at 50 mg/ml. The molecular structural unit of the polyanionic polymer is as follows: […]
Genomic DNA extracts from transfected cells were prepared using QuickExtract Solution. Targeted genomic region was PCR amplified with NGS primers using JumpStart™ Taq ReadyMix™ for Quantitative PCR Kit (MilliporeSigma) with the following cycling condition: 98° C./2 m; 98° C./15 s, 62° C./30 s, and 72° C./45 s for 34 cycles; 72° C./5 m.
Primary PCR products were then reamplified with Illumina index primers using JumpStart™ Taq ReadyMix™ for Quantitative PCR Kit (MilliporeSigma) with the following cycling condition: 95° C./3 m; 95° C./30 s, 55° C./30 s, and 72° C./30 s for 8 cycles; 72° C./5 m. Indexed PCR products were purified with Select-a-Size DNA Clean & Concentrator kit (Zymo) and quantified by PicoGreen (ThermoFisher). […] The FASTQ files for each sample were analyzed for genome editing frequency. […]

Substance: Collagen from rat tail
- level of editing efficiency versus the control buffer: significantly higher
